# Assay results: patent US20230331652A1, “TRANS-CYCLOOCTENES WITH HIGH REACTIVITY AND FAVORABLE PHYSIOCHEMICAL PROPERTIES” (University of Delaware, priority 2020, published 2023)
# How the values were obtained:
# [1] = Stability in methanol-d4 (35 mM) by quantitative 1H NMR; format: physicochemical; details: 35 mM in methanol-d4, after 7 days
# Experimental: (§1) A solution of 14 (4.5 mg, 26 μmol) in methanol-d4 (750 μL) was monitored by quantitative ^1H NMR on a 600 MHz instrument to observe the decomposition of the trans-isomer over time. Methyl tert-butyl ether (3.1 μL, 26 μmol) was used as an internal standard. […] The results were plotted using Prism software (Version 8.00, GraphPad Software Inc). A waterfall plot of the ^1H NMR spectra is provided.
# as §1, with “4a (3.3” for “14 (4.5”
# [2] = 4a with a PEGylated amide of 20 in 100% H2O, previously measured (Darko et al.); cited from earlier work
# [3] = Stopped-flow kinetics of the Diels-Alder reaction with tetrazine 20; format: physicochemical; details: 4a, 10 μM tetrazine, 95:5 PBS/MeOH, 25° C., in s-1 (unit assumed)
# [4] = as above; format: physicochemical; details: toward tetrazine 20, stopped flow, 25° C., 95:5 PBS:MeOH
# Experimental: The kinetics for the reaction of a-TCO derivative 14 toward a 3,6-dipyridyl-s-tetrazinyl succinamic acid derivative 20 were measured by stopped flow kinetics at 25° C. in 95:5 PBS:MeOH (FIG. 4A).
# Stopped-flow kinetics measurements were performed on a SX18MV-R stopped-flow spectrophotometer (Applied Photophysics Ltd.) with temperature control (25° C.).
# The reaction between 5-ax-hydroxy-5-eq-(2-hydroxyethyl)-trans-cyclooctene 14 and 3,6-dipyridyl-s-tetrazine-mono-succinamic acid 20 was monitored by a SX18MV-R stopped-flow spectrophotometer (Applied Photophysics Ltd.) at 325 nm by measuring the exponential decay of tetrazine under pseudo-first order conditions. Solutions of 14 (0.98, 1.46, 1.95, and 2.63 mM in 9:1 PBS/MeOH) and tetrazine (0.1 mM in PBS) were mixed in the stopped-flow spectrophotometer in equal volumes resulting in final concentrations of 0.49 mM, 0.73 mM, 0.97 mM, and 1.31 mM of 14 and 0.05 mM of tetrazine in 95:5 PBS/MeOH. Three independent samples were prepared for each TCO concentration and measurements were taken in duplicate every 0.1 ms for 0.1 sat 25° C. The observed rates kobs for each run were determined by nonlinear regression analysis of the data points using Prism software (Version 8.00, GraphPad Software Inc). The average kobs values were plotted against the concentrations of 14 to obtain the bimolecular rate constant k2 from the slope of the plot.
# The observed rates (kobs) of 5-ax-hydroxy-5-eq-(2-hydroxyethyl)-trans-cyclooctene 14 (10-30 equivalents) and 3,6-dipyridyl-s-tetrazine-mono-succinamic acid 20 were measured using stopped-flow kinetics. The final concentrations of 14 after injection were (A) 0.49 mM, (B) 0.73 mM, (C) 0.97 mM, and (D) 1.31 mM and the concentration of tetrazine was 0.05 mM in 95:5 PBS/MeOH at 25° C. Duplicate measurements were obtained for three independent samples for each concentration of 14.
# The reaction between 5-ax-hydroxy-trans-cyclooctene 4a and 3,6-dipyridyl-s-tetrazine-mono-succinamic acid 20 was monitored by a SX18MV-R stopped-flow spectrophotometer (Applied Photophysics Ltd.) at 325 nm by measuring the exponential decay of tetrazine under pseudo-first order conditions. Solutions of 4a (100, 200, 300, and 400 μM in 9:1 PBS/MeOH) and tetrazine (20 μM in PBS) were mixed in the stopped-flow […] 95:5 PBS/MeOH. Three independent samples were prepared for each TCO concentration and measurements were taken in duplicate every 0.1 ms for 0.2 s at 25° C. The observed rates kobs for each run were determined by nonlinear regression analysis of the data points using Prism software (Version 8.00, GraphPad Software Inc). The average kobs values were plotted against the concentrations of 4a to obtain the bimolecular rate constant k2 from the slope of the plot.
# The observed rates (kobs) of 5-ax-hydroxy-trans-cyclooctene 4a (5-20 equivalents) and 3,6-dipyridyl-s-tetrazine-mono-succinamic acid 20 were measured using stopped-flow kinetics. […]
# [5] = Stability in phosphate buffered D2O, pD=7.4 (33 mM) by quantitative 1H NMR; format: physicochemical
# Experimental: (§2) Phosphate buffered D2O (pD=7.4) was prepared by combining anhydrous sodium dihydrogen phosphate (NaH2PO4, 77.1 mg) and anhydrous disodium hydrogen phosphate (Na2HPO4, 204.4 mg) with 20 mL of D2O to make a 0.1 M solution. The pD was measured on a Fisher Scientific AB15 Plus pH meter and pH values were converted to pD by adding 0.4 units. The pD was adjusted to 7.4 with DCI (35 wt. % in D2O) and NaOD (40 wt. % in D2O) as necessary.
# (§3) A solution of 14 (4.3 mg, 25 μmol) in phosphate buffered D2O (750 μL, pD=7.4) was monitored by quantitative ^1H NMR on a 600 MHz instrument to observe the decomposition of the trans-isomer over time. Methyl tert-butyl ether (3.0 μL, 26 μmol) was used as an internal standard. After 1 day, 90% of 14 remained and after 5 days, 39% remained (FIG. 6B). The results were plotted using Prism software (Version 8.00, GraphPad Software Inc). A waterfall plot of the ^1H NMR spectra is provided.
# as §3, with “4a (3.2” for “14 (4.3”, “85%” for “90%”, “4a” for “14”, “35%” for “39%”
# [6] = Stability with mercaptoethanol (25 mM) in phosphate buffered D2O, pD=7.4; format: physicochemical; details: 25 mM mercaptoethanol
# Experimental: as §2
# TCO 14 (3.1 mg, 18 μmol) in a solution of mercaptoethanol in phosphate buffered D2O (720 μL, 18 μmol, 25 mM, pD=7.4) was monitored by quantitative 1H NMR on a 600 MHz instrument to observe the decomposition of the trans-isomer over time. Methyl tert-butyl ether (2.1 μL, 18 μmol) was used as an internal standard. After 4 hours, 93% of 14 remained and 49% of 14 remained after 20 hours. (FIG. 6C). The results were plotted using Prism software (Version 8.00, GraphPad Software Inc). A waterfall plot of the ^1H NMR spectra is provided.
# TCO 4a (2.3 mg, 18 μmol) in a solution of mercaptoethanol in phosphate buffered D2O (720 μL, 18 μmol, 25 mM, pD=7.4) was monitored by quantitative 1H NMR on a 600 MHz instrument to observe the decomposition of the trans-isomer over time. Methyl tert-butyl ether (2.1 μL, 18 μmol) was used as an internal standard. After 4 hours, 89% of 4a and 49% of 4a remained after 20 hours. (FIG. 6C). The results were plotted using Prism software (Version 8.00, GraphPad Software Inc). A waterfall plot of the ^1H NMR spectra is provided.
# [7] = toward 20; no kinetic example for 4b in the patent, FIG. 4A footnotes cite earlier measurements in 100% H2O; cited from earlier work
# [8] = tested on: cellular protein sulfenic acids; details: generally; not under the conditions of intracellular bioorthogonal chemistry (generally ≤10 μM); cited from earlier work
compound,measurement,setting,value
"OC1CC/C=C/CCC1 (stereo not drawn) [Compound 4a, 5-ax-Hydroxy-trans-cyclooctene]",decomposition of the trans-isomer,[1],no observable decomposition
same,k2,[2],"80,200"
same,Kobs,[3]; Table 2 head A (0.49 mM),3.407
same,Kobs,[3]; Table 2 head B (0.73 mM),6.966
same,Kobs,[3]; Table 2 head C (0.97 mM),10.09
same,Kobs,[3]; Table 2 head D (1.31 mM),13.86
same,second-order rate constant k2,[4],"70,000±1800 M^−1s^−1"
same,TCO remaining,"[5]; phosphate buffered D2O pD 7.4, 1 day (24 h), room temperature",85%
same,TCO remaining,"[5]; phosphate buffered D2O pD 7.4, 5 days",35%
same,TCO remaining,"[6]; phosphate buffered D2O pD 7.4, 4 hours",89%
same,TCO remaining,"[6]; phosphate buffered D2O pD 7.4, 20 hours",49%
"OC1CC/C=C/CCC1 (stereo not drawn) [Compound 4b, equatorial-5-hydroxy-trans-cyclooctene]","second-order rate constant k2 (equatorial isomer, comparison value)",[7],"22,400±40 M^−1s^−1"
"C#CCC1(O)CC/C=C/CCC1 (stereo not drawn) [Compound 5, 5-ax-Hydroxy-5-eq-propargyl-trans-cyclooctene]",TCO concentration at which sulfenic acids are modified,[8],≥ 500 µM
